The values below come from patent publication US8314079B2, “Hyaluronic acid oligosaccharide fractions and drugs containing the same” (Seikagaku Corporation, priority 2000, dated 2012).

One assay concerns HSF1. Nature of the assay: Phosphorylation (activation) of HSF1 in heat-shocked K562 cells, band shift 66 kDa to 81 kDa by SDS-PAGE/Western blotting. Conditions: for shift of a band of 66 kDa (HSF1 not phosphorylated) to a band of 81 kDa (phosphorylated HSF1): Experiment 1, 1, 10 or 100 ng/mL, heat shock 42° C., 20 minutes; for amount of HSF1 per se / band shift of HSF1 (66 kDa to 81 kDa): Experiment 2 (and comparative Experiment 3), 100 ng/mL, heat shock 43° C. The format is cell-based, human. The text has this: It is known that HSF1 (heat shock factor 1) protein is a transcription factor of Hsp70 (J. Biol. Chem., 271, pp. 3355-3358, 1996). Moreover, the HSF1 protein can be activated by phosphorylation, and this phosphorylation can be detected based on band shift in SDS-polyacrylamide gel electrophoresis (SDS-PAGE) (apparent molecular weight shifts from about 66 kDa to about 81 kDa). By utilizing this fact, the HA oligosaccharides of various sizes were allowed to act on the K562 cells given with stress, and the aforementioned band shift was detected to investigate the degree of the phosphorylation (activation) of HSF1.
HA4, ΔHA4, HA6, HA8, HA2-18 and HA 8-14 were each added to a medium containing the aforementioned cells at a concentration of 1, 10 or 100 ng/mL. Then, the cells were immediately transferred into an environment at 42° C. to be given with heat shock and incubated for 20 minutes. After the incubation, the cells were collected by centrifugation, and SDS-PAGE (gel concentration: 10%) was performed. Thereafter, Western blotting was performed by using anti-HSF1 monoclonal antibodies (produced by Stressgene) as primary antibodies and goat anti-mouse IgG monoclonal antibodies (produced by Jackson Lab) as secondary antibodies to detect the shift of a band of 66 kDa (HSF1 not phosphorylated) to a band of 81 kDa (phosphorylated HSF1).
In order to confirm the reproducibility of Experiment 1, the band shift was detected in the same manner as in Experiment 1 by using HA4, ΔHA4, HA8 and HA84 except that HA was added in a single kind of amount of 100 ng/mL, and the heat shock was given at 43° C. In FIG. 41, the first lane from the left indicates the result obtained with an extract of cells incubated at 37° C. (no addition of HA oligosaccharide), the second lane indicates the result obtained with an extract of cells subjected to 43° C. (no addition of HA oligosaccharide), and the first lane from the right indicates the result of detection of HSF1 (derived from bacteria) as a standard.
In order to investigate whether the action observed in Experiment 2 was specific to the saccharide chain basic structure of HA oligosaccharides, the following comparative experiment was performed by using chondroitin oligosaccharides. […] Therefore, it can be said that Ch is a substance extremely structurally analogous to HA, and the same shall also apply to the oligosaccharides thereof. • Saturated Ch tetrasaccharide (Ch4) • GlcAβ1-3GalNAcβ1-4GlcAβ1-3GalNAc • Saturated Ch hexasaccharide (Ch6) • GlcAβ1-3GalNAcβ1-4GlcAβ1-3GalNAcβ1-4GlcAβ1-3GalNAc • Saturated Ch octasaccharide (Ch8) • GlcAβ1-3GalNAcβ1-4GlcAβ1-3GalNAcβ1-4GlcAβ1-3GalNAcβ1-4GlcAβ1-3GalNAc
The same experiment as Experiment 2 was performed by using these oligosaccharides.
On the technique in general: A western blot detects proteins with antibodies after separation by electrophoresis.

A further assay relates to Hsp72. Nature of the assay: Expression of Hsp72 in K562 cells given heat shock, Western blotting. The format is cell-based, human. The protocol:
HA2, ΔHA4, HA6, HA84 and L4L4 were each added to a medium containing the aforementioned cells (37° C.) at a concentration of 1, 10 or 100 ng/mL. Then, the cells were immediately transferred into an environment at 43° C. to be given with heat shock and incubated for 20 minutes. Then, the cells were returned to 37° C., then further incubated for 2 hours and collected by centrifugation, and SDS-PAGE was performed in the same manner as in <1> mentioned above. Thereafter, Western blotting was performed by using anti-Hsp72 monoclonal antibodies (produced by Amersham) as primary antibodies and goat anti-rabbit IgG monoclonal antibodies (produced by Jackson Lab) as secondary antibodies to detect Hsp72. Hsp72 is one of the members of Hsp70 family and is the most typical one, and it is known that its expression is induced and promoted by stress.
The leftmost lane in FIG. 42a indicates the results of the detection of Hsp72 in a similar manner with giving no heat shock (37° C.) and addition of no test substance, and the rightmost lane indicates the results of detection of standard Hsp72 (Hsp72 derived from bacteria, bHsp72) in a similar manner.

With `CC(=O)N[C@H]1[C@H](O[C@H]2[C@H](O)[C@@H](O)[C@H](O[C@H]3[C@H](O)[C@@H](CO)O[C@@H](O[C@H]4[C@H](O)[C@@H](O)[C@H](O[C@H]5[C@H](O)[C@@H](CO)OC(O)[C@@H]5NC(C)=O)O[C@@H]4C(=O)O)[C@@H]3NC(C)=O)O[C@@H]2C(=O)O)O[C@H](CO)[C@@H](O)[C@@H]1O[C@@H]1O[C@H](C(=O)O)[C@@H](O)[C@H](O)[C@H]1O.[Na].[Na].[Na]` (stereo partly drawn) [HA6, sodium β-D-glucopyranosyluronate-[(1→3)-2-acetamido-2-deoxy-β-D-glucopyranosyl-(1→4)-(sodium β-D-glucopyranosyluronate)]2-(1→3)-2-acetamido-2-deoxy-D-glucopyranose], in the assay with HSF1, the “shift of a band of 66 kDa (HSF1 not phosphorylated) to a band of 81 kDa (phosphorylated HSF1)” value is on record as “shift to the 81 kDa band was observed depending on the amount of the added HA oligosaccharide”.
As for `CC(=O)N[C@H]1[C@H](O[C@H]2[C@H](O)[C@@H](O)[C@H](O[C@H]3[C@H](O)[C@@H](CO)O[C@@H](O[C@H]4[C@H](O)[C@@H](O)[C@H](O[C@H]5[C@H](O)[C@@H](CO)O[C@@H](O[C@H]6[C@H](O)[C@@H](O)[C@H](O[C@H]7[C@H](O)[C@@H](CO)OC(O)[C@@H]7NC(C)=O)O[C@@H]6C(=O)O)[C@@H]5NC(C)=O)O[C@@H]4C(=O)O)[C@@H]3NC(C)=O)O[C@@H]2C(=O)O)O[C@H](CO)[C@@H](O)[C@@H]1O[C@@H]1O[C@H](C(=O)O)[C@@H](O)[C@H](O)[C@H]1O` (stereo partly drawn) [HA8, sodium β-D-glucopyranosyluronate-[(1→3)-2-acetamido-2-deoxy-β-D-glucopyranosyl-(1→4)-(sodium β-D-glucopyranosyluronate)]3-(1→3)-2-acetamido-2-deoxy-D-glucopyranose], in the assay on HSF1, the “shift of a band of 66 kDa (HSF1 not phosphorylated) to a band of 81 kDa (phosphorylated HSF1)” value is given as “inhibition of the band shift was observed”, the “amount of HSF1 per se” value is “increase of the amount of HSF1 of 66 kDa was observed” and the “band shift of HSF1 (66 kDa to 81 kDa)” value is given as “band shift to the band of 81 kDa was not observed”.
As for `CC(=O)NC1C(O)OC(CO)[C@@H](O)C1O[C@@H]1OC(C(=O)[O-])[C@@H](O[C@@H]2OC(CO)[C@@H](O)C(O[C@@H]3OC(C(=O)[O-])=CC(O)C3O)C2NC(C)=O)C(O)C1O.[Na+].[Na+]` (stereo partly drawn) [ΔHA4, ΔGlcAβ1-3GlcNAcβ1-4GlcAβ1-3GlcNAc], the “expression of Hsp72” value in the assay with Hsp72 (K562 cells not given heat shock) is recorded as “enhancement of the expression of Hsp72 by ΔHA4 was not observed”. The “expression of Hsp72” value in the assay with Hsp72 (K562 cells, 1, 10 or 100 ng/mL, heat shock 43° C. 20 minutes, then 37° C. 2 hours) is “particularly strongly enhanced”. For the same compound, in the assay on HSF1, the “shift of a band of 66 kDa (HSF1 not phosphorylated) to a band of 81 kDa (phosphorylated HSF1)” value was “shift to the 81 kDa band was observed depending on the amount of the added HA oligosaccharide”; the “amount of HSF1 per se” value is “amounts of both HSF1 of 66 kDa and 81 kDa per se were also increased”; the “band shift of HSF1 (66 kDa to 81 kDa)” value is listed as “band shift was observed”.
